# Experimental data reported in patent US20120283212A1, “USE OF POLYSACCHARIDES FOR TREATING STRESS AND ANXIETY” (ROQUETTE FRERES, priority 2009, published 2012).
# How the values were obtained:
# [1] = tested on: male Wistar rat; test: Conditioned Defensive Burying (CDB) test; format: in vivo; conditions: the greater the stress, the higher the score
# Protocol: The anti-stress effects of a PS1 polysaccharide, administered orally for 14 days, were evaluated in the male Wistar rat in the Conditioned Defensive Burying (CDB) test.
# For this, the PS1 is administered by esophageal gavage daily at the doses of 0.7, 1.4 and 2.8 g/kg of body weight for 14 days (8 rats per group). Similarly, a vehicle control represented by spring water is administered under the same conditions. The reference positive control is diazepam: from D0 to D13, methylcellulose is administered to the rats, and on D14, diazepam at 1 mg/kg or 3 mg/kg of body weight is administered to the rats. The PS1 and diazepam mixture is also studied: the PS1 is administered for 14 days alone, and on D14, diazepam at 1 mg/kg is added to the esophageal gavage of the PS1.
# On D14, the rats are subjected to the Conditioned Defensive Burying (CDB) test. For this, an electric probe is inserted into a cage before the start of the test. Each rat is placed in the experimental device on the opposite side to the probe and a single electric shock, of weak intensity (2 mA), is delivered to the animal at the moment it places its front paw on the probe for the first time. Following the shock, the behavior of the rat is recorded for five minutes; an overall stress score is attributed for each rat. The greater the stress, the higher the score.
# [2] = tested on: male Wistar rat; test: Functional observational battery (FOB); format: in vivo; conditions: diazepam 3 mg/kg on D14; for Spontaneous activity on D14 (score): score 0=excited, 1 to 3 moderate rapid movements, 4 no activity; for Finger approach reaction on D14 (score): score 0=none, 1 to 3=slight to strong escape; for Respiratory rate on D14 (score): score 0=slow, 1=normal, 2 rapid
# Protocol: The effects of an oligosaccharide administered orally at doses of 0.7 and 1.4 g/kg for 14 days were evaluated in a functional observational battery (FOB) in the male Wistar rat. The objective of this FOB test is to evaluate the change in behavioral, neurological and physiological parameters of the rats according to the products tested.
# For this, a polysaccharide (PS1) as defined in table 1 is administered by esophageal gavage daily at these two doses for 14 days (6 rats per group). Similarly, a vehicle control consisting of spring water is administered under these conditions. The reference positive control is diazepam: from D0 to D13, methylcellulose is administered to the rats and on D14, diazepam at 3 mg/kg of body weight is also administered.
# The animals are subjected to the functional observational battery before treatment on D0 and at the end of the study on D14.
# Each test comprises three observational phases: • a direct observational phase during which the animal is not disturbed, • an active observational phase during which the animal is handled, • a phase devoted to evaluating the reactions of the animals to reactivity tests.
# Several variables are recorded: • Behavioral effects: spontaneous locomotor activity, locomotor behavior disorders, emotionality (vocalization frequency), touch escape reaction, irritability, provoked aggressiveness and freezing behaviors, sleeping/awakening, urination and defecation, sensorimotor responses (visual placing, toe pinch and sound stimulus reaction). • Neurological effects: pupillary response, palpebral reflex, pelvic elevation, tail position, limb and abdominal muscle tone, righting test, grip strength test, suspension test, tremors and piloerection. • Physiological effects: salivation, lacrimation, diarrhea, rectal temperature, heart and respiratory rate.
# Definition of the scores: • Spontaneous activity: 0=excited; 1 to 3 moderate rapid movements; 4: no activity. • Finger approach reaction: 0=none; 1 to 3=slight to strong escape. • Respiratory rate: 0=slow; 1=normal; 2 rapid. • Sound stimulus startle reaction: 0=slight; 1=<1 cm; 2=>1 cm.
smiles,measurement,setting,value
"CN1C(=O)CN=C(c2ccccc2)c2cc(Cl)ccc21 [Diazepam, diazepam]",Overall stress score (Mean ± SEM),[1]; diazepam 1 mg/kg on D14,92.57 ± 17.99
same,Overall stress score (Mean ± SEM),[1]; diazepam 3 mg/kg on D14,65.25 ± 7.15
same,Overall stress score (Mean ± SEM),"[1]; diazepam 3 mg/kg on D14, listed as diazepam",significantly lower than that of the vehicle group
same,"Heart rate on D14, in comparison with the vehicle",[2],significantly slower
same,Spontaneous activity on D14 (score),[2],2.16
same,Spontaneous activity on D14 (score),[2]; listed as reference,tend to be significantly less active
same,Finger approach reaction on D14 (score),[2],0.18
same,Finger approach reaction on D14 (score),[2]; listed as reference,significantly less reactive to a finger approach
same,Sound stimulus startle reaction on D14 (score),"[2]; score 0=slight, 1=<1 cm, 2=>1 cm",0.00
same,Respiratory rate on D14 (score),[2],1.14
same,Respiratory rate on D14 (score),[2]; listed as reference,significantly slower
